*1 amine or outer side, *2 acyl side, *3 side chain or, on linkers, in order; H or OH if unused. Where a SMILES comes first, the peptide text is derived from it. Side-chain parts run from the residue outwards. [ ]: non-standard residue; d: D form. The star is where a group is joined. C18 diacid = O=C(O)CCCCCCCCCCCCCCCCC(=O)*; C16 diacid = O=C(O)CCCCCCCCCCCCCCC(=O)*; γGlu = O=C(O)[C@H](CCC(=O)[*:2])N[*:1]; Pentanoyl = CCCCC(=O)*; AEEA = NCCOCCOCC(=O)O; Aib = CC(C)(N)C(=O)O; Propionyl = CCC(=O)*; Butyryl = CCCC(=O)*
Assays:
human CRF2a receptor = molecular target: T1, human CRF2a receptor (Homo sapiens, UniProt Q13324); assay: Activity at human CRF2a receptor, cAMP functional assay in TeloHEAC cells; format: cell-based; details: TeloHEAC cells stably expressing human CRF2a receptor, relative to urocortin 2 (100 nM = 100%)
T1 construct: expressed in transfected cells; host or cells: TeloHEAC cells
T1 sequence (Q13324 1-411): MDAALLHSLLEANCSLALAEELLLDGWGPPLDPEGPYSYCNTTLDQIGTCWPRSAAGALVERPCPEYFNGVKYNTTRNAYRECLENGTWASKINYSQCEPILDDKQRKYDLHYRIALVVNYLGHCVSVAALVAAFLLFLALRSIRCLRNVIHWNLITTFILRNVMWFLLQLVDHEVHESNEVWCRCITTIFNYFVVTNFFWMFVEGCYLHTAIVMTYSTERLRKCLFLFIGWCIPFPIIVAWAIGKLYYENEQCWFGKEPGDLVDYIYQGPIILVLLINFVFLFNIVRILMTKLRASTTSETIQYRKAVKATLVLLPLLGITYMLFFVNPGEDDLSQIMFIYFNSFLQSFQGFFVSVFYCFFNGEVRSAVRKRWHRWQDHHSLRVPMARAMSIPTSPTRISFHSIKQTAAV
Outline: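 TeloHEAC cells stably expressing human CRF2a (10000 cells/well, suspended in HBSS/20 mM HEPES with 2 mM IBMX) were exposed to compounds for 30 min at 37 °C. cAMP was read as the 665/620 nm fluorescence ratio after 1 h at room temperature. EC50 was derived relative to 100 nM urocortin 2, set as 100%.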

CFR1R receptor = molecular target: T2, CFR1R receptor (Homo sapiens, UniProt P34998); assay: Activity at anti-target CFR1R receptor, cAMP assay in CRF1R-overexpression CHO-K1 cells; format: cell-based; details: 100% = Sauvagine at 100 nM; for EC50: cAMP
T2 construct: host or cells: CHO-K1 (clone 2)
T2 sequence (P34998 24-415): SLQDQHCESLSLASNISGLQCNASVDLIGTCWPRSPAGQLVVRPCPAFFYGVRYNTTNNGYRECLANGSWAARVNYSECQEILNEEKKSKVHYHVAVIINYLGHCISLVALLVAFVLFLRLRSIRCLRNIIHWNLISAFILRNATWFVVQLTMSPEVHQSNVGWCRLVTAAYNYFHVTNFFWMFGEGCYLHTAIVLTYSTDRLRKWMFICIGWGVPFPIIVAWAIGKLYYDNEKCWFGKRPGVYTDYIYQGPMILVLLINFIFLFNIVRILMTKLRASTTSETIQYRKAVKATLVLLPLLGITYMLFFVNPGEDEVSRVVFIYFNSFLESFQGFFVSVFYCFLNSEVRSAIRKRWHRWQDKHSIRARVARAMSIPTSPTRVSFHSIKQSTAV
Outline: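 Clone 2; cryopreserved stocks (10% DMSO); 4000 cells/well final; 100% activation = Sauvagine 100 nM; otherwise as TeloHAEC protocol.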

Compound | EC50 (human CRF2a receptor) [nM] | Emax (% I) (CFR1R receptor) | EC50 (CFR1R receptor) [nM]
CCC(=O)N[C@H](C(=O)N[C@@H](CC(C)C)C(=O)N[C@@H](CO)C(=O)N[C@@H](CC(C)C)C(=O)N[C@@H](CC(=O)O)C(=O)N[C@H](C(=O)N1CCC[C@H]1C(=O)N[C@H](C(=O)N[C@@H](CCCCN)C(=O)N[C@@H](CC(C)C)C(=O)N[C@@H](CCCCNC(=O)COCCOCCNC(=O)COCCOCCNC(=O)CC[C@H](NC(=O)CCCCCCCCCCCCCCCCC(=O)O)C(=O)O)C(=O)N[C@@H](CCCCN)C(=O)N[C@H](C(=O)N[C@@H](CC(C)C)C(=O)N[C@@H](CC(C)C)C(=O)N[C@@H](CCC(=O)O)C(=O)N[C@@H](CCC(N)=O)C(=O)N[C@@H](CCC(=O)O)C(=O)N[C@@H](CCCCN)C(=O)N[C@@H](CCC(N)=O)C(=O)N[C@@H](CCCCN)C(=O)N[C@@H](CCCCN)C(=O)N[C@@H](CCC(N)=O)C(=O)N[C@@H](CCCNC(=N)N)C(=O)N[C@@H](CCC(=O)O)C(=O)N[C@@H](CCC(N)=O)C(=O)N[C@@H](C)C(=O)N[C@@H](CCC(=O)O)C(=O)N[C@H](C(=O)N[C@@H](CC(N)=O)C(=O)N[C@@H](CCCCN)C(=O)N[C@@H](CCC(N)=O)C(=O)N[C@H](C(=O)N[C@@H](CC(C)C)C(=O)N[C@@H](C)C(=O)N[C@@H](CCC(N)=O)C(=O)N[C@H](C(N)=O)C(C)C)[C@@H](C)CC)[C@@H](C)O)[C@@H](C)CC)[C@@H](C)CC)C(C)C)C(C)C [compound 94] (Propionyl-VLSLDVPIKLK([AEEA-AEEA-γGlu-C18 diacid])KILLEQEKQKKQREQAETNKQILAQV-NH2) | 1.48 | 0 | > 250
CCCC(=O)N[C@H](C(=O)N[C@@H](CC(C)C)C(=O)N[C@@H](CO)C(=O)N[C@@H](CC(C)C)C(=O)N[C@@H](CC(=O)O)C(=O)N[C@H](C(=O)N1CCC[C@H]1C(=O)N[C@H](C(=O)N[C@@H](CCCCN)C(=O)N[C@@H](CC(C)C)C(=O)N[C@@H](CCCCNC(=O)COCCOCCNC(=O)COCCOCCNC(=O)CC[C@H](NC(=O)CCCCCCCCCCCCCCCCC(=O)O)C(=O)O)C(=O)N[C@@H](CCCCN)C(=O)N[C@H](C(=O)N[C@@H](CC(C)C)C(=O)N[C@@H](CC(C)C)C(=O)N[C@@H](CCC(=O)O)C(=O)N[C@@H](CCC(N)=O)C(=O)N[C@@H](CCC(=O)O)C(=O)N[C@@H](CCCCN)C(=O)N[C@@H](CCC(N)=O)C(=O)N[C@@H](CCCCN)C(=O)N[C@@H](CCCCN)C(=O)N[C@@H](CCC(N)=O)C(=O)N[C@@H](CCCNC(=N)N)C(=O)N[C@@H](CCC(=O)O)C(=O)N[C@@H](CCC(N)=O)C(=O)N[C@@H](C)C(=O)N[C@@H](CCC(=O)O)C(=O)N[C@H](C(=O)N[C@@H](CC(N)=O)C(=O)N[C@@H](CCCCN)C(=O)N[C@@H](CCC(N)=O)C(=O)N[C@H](C(=O)N[C@@H](CC(C)C)C(=O)N[C@@H](C)C(=O)N[C@@H](CCC(N)=O)C(=O)N[C@H](C(N)=O)C(C)C)[C@@H](C)CC)[C@@H](C)O)[C@@H](C)CC)[C@@H](C)CC)C(C)C)C(C)C [compound 95] (Butyryl-VLSLDVPIKLK([AEEA-AEEA-γGlu-C18 diacid])KILLEQEKQKKQREQAETNKQILAQV-NH2) | 0.76 | 5 | > 250
CC[C@H](C)[C@H](NC(C)=O)C(=O)N[C@H](C(=O)N[C@@H](CC(C)C)C(=O)N[C@@H](CO)C(=O)N[C@@H](CC(C)C)C(=O)N[C@@H](CC(=O)O)C(=O)N[C@H](C(=O)N1CCC[C@H]1C(=O)N[C@H](C(=O)N[C@@H](CCCCN)C(=O)N[C@@H](CC(C)C)C(=O)N[C@@H](CCCCNC(=O)COCCOCCNC(=O)COCCOCCNC(=O)CC[C@H](NC(=O)CCCCCCCCCCCCCCCCC(=O)O)C(=O)O)C(=O)N[C@@H](CCCCN)C(=O)N[C@H](C(=O)N[C@@H](CC(C)C)C(=O)N[C@@H](CC(C)C)C(=O)N[C@@H](CCC(=O)O)C(=O)N[C@@H](CCC(N)=O)C(=O)N[C@@H](CCC(=O)O)C(=O)N[C@@H](CCCCN)C(=O)N[C@@H](CCC(N)=O)C(=O)N[C@@H](CCCCN)C(=O)N[C@@H](CCCCN)C(=O)N[C@@H](CCC(N)=O)C(=O)N[C@@H](CCCNC(=N)N)C(=O)N[C@@H](CCC(=O)O)C(=O)N[C@@H](CCC(N)=O)C(=O)N[C@@H](C)C(=O)N[C@@H](CCC(=O)O)C(=O)N[C@H](C(=O)N[C@@H](CC(N)=O)C(=O)NC(C)(C)C(=O)N[C@@H](CCC(N)=O)C(=O)N[C@H](C(=O)N[C@@H](CC(C)C)C(=O)N[C@@H](C)C(=O)N[C@@H](CCC(N)=O)C(=O)N[C@H](C(N)=O)C(C)C)[C@@H](C)CC)[C@@H](C)O)[C@@H](C)CC)[C@@H](C)CC)C(C)C)C(C)C [compound 97] (Ac-IVLSLDVPIKLK([AEEA-AEEA-γGlu-C18 diacid])KILLEQEKQKKQREQAETN[Aib]QILAQV-NH2) | 3.17 | 0 | > 250

The next lines start with the values.

EC50 (human CRF2a receptor) [nM] | Emax (% I) (CFR1R receptor) | EC50 (CFR1R receptor) [nM] | Compound
0.38 | 10 | > 250 | CCCC(=O)N[C@H](C(=O)N[C@@H](CC(C)C)C(=O)N[C@@H](CO)C(=O)N[C@@H](CC(C)C)C(=O)N[C@@H](CC(=O)O)C(=O)N[C@@H](C(=O)N1CCC[C@H]1C(=O)N[C@H](C(=O)N[C@@H](CCCCN)C(=O)N[C@@H](CC(C)C)C(=O)N[C@@H](CCCCNC(=O)CC[C@H](NC(=O)CCCCCCCCCCCCCCC(=O)O)C(=O)O)C(=O)N[C@@H](CCCCN)C(=O)N[C@H](C(=O)N[C@@H](CC(C)C)C(=O)N[C@@H](CC(C)C)C(=O)N[C@@H](CCC(=O)O)C(=O)N[C@@H](CCC(N)=O)C(=O)N[C@@H](CCC(=O)O)C(=O)N[C@@H](CCCCN)C(=O)N[C@@H](CCC(N)=O)C(=O)N[C@@H](CCCCN)C(=O)N[C@@H](CCCCN)C(=O)N[C@@H](CCC(N)=O)C(=O)N[C@@H](CCCNC(=N)N)C(=O)N[C@@H](CCC(=O)O)C(=O)N[C@@H](CCC(N)=O)C(=O)N[C@@H](C)C(=O)N[C@@H](CCC(=O)O)C(=O)N[C@H](C(=O)N[C@@H](CC(N)=O)C(=O)NC(C)(C)C(=O)N[C@@H](CCC(N)=O)C(=O)N[C@H](C(=O)N[C@@H](CC(C)C)C(=O)N[C@@H](C)C(=O)N[C@@H](CCC(N)=O)C(=O)N[C@H](C(N)=O)C(C)C)[C@@H](C)CC)[C@@H](C)O)[C@@H](C)CC)[C@@H](C)CC)C(C)C)C(C)C [compound 79] (Butyryl-VLSLD[dV]PIKLK([γGlu-C16 diacid])KILLEQEKQKKQREQAETN[Aib]QILAQV-NH2)
0.8 | 6 | > 250 | CCCCC(=O)N[C@H](C(=O)N[C@@H](CC(C)C)C(=O)N[C@@H](CO)C(=O)N[C@@H](CC(C)C)C(=O)N[C@@H](CC(=O)O)C(=O)N[C@@H](C(=O)N1CCC[C@H]1C(=O)N[C@H](C(=O)N[C@@H](CCCCN)C(=O)N[C@@H](CC(C)C)C(=O)N[C@@H](CCCCNC(=O)CC[C@H](NC(=O)CCCCCCCCCCCCCCC(=O)O)C(=O)O)C(=O)N[C@@H](CCCCN)C(=O)N[C@H](C(=O)N[C@@H](CC(C)C)C(=O)N[C@@H](CC(C)C)C(=O)N[C@@H](CCC(=O)O)C(=O)N[C@@H](CCC(N)=O)C(=O)N[C@@H](CCC(=O)O)C(=O)N[C@@H](CCCCN)C(=O)N[C@@H](CCC(N)=O)C(=O)N[C@@H](CCCCN)C(=O)N[C@@H](CCCCN)C(=O)N[C@@H](CCC(N)=O)C(=O)N[C@@H](CCCNC(=N)N)C(=O)N[C@@H](CCC(=O)O)C(=O)N[C@@H](CCC(N)=O)C(=O)N[C@@H](C)C(=O)N[C@@H](CCC(=O)O)C(=O)N[C@H](C(=O)N[C@@H](CC(N)=O)C(=O)N[C@H](C(=O)N[C@@H](CCC(N)=O)C(=O)N[C@H](C(=O)N[C@@H](CC(C)C)C(=O)N[C@@H](C)C(=O)N[C@@H](CCC(N)=O)C(=O)N[C@H](C(N)=O)C(C)C)[C@@H](C)CC)C(C)C)[C@@H](C)O)[C@@H](C)CC)[C@@H](C)CC)C(C)C)C(C)C [compound 81] (Pentanoyl-VLSLD[dV]PIKLK([γGlu-C16 diacid])KILLEQEKQKKQREQAETNVQILAQV-NH2)

Reference: patent US20260001928A1 (CORTERIA PHARMACEUTICALS, priority 2022, published 2026)
